For 20 molecules, GI50 and TGI results are on record in PubChem BioAssay (NCI).

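1) Cells in 96-well plates. 2) Compound, 48 h, 5 concentrations. 3) Linear interpolation between surrounding doses. 4) Unreached endpoint = highest concentration. GI50: concentration for 50% inhibition of growth. At the TGI there is no net growth.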

Holding throughout (experiment): NCI-60 cell line screen, 48 h
The subject of experiment [1] is SNB-75 CNS.
Experiment [2] deals with OVCAR-8 ovarian.
Experiment [3] concerns UO-31 renal.
The subject of experiment [4] is SF-295 CNS.
In experiment [5] the test system is A549 NSCLC.
Experiment [6] has as its system UACC-62 melanoma.
The test system of experiment [7] is NCI-H522 lung.
For experiment [8], the system named is HS 578T breast.
Experiment [9] concerns TK-10 renal.
Experiment [10] relates to A498 renal.

As to `CC12OC(C(=O)C13CCC3)C1C(=O)c3c(O)ccc(O)c3C(=O)C12` (stereo unspecified), the GI50 in [1] is 4.99 µM; in experiment [2], 7.04 µM; in [3], 2.82 µM; in experiment [5] it was 5.79 µM; in experiment [6], 3.56 µM; in [7], 2.95 µM. Moreover, the figures for the GI50 in experiment [8], in [9] and in experiment [10] were 4.38 µM, 0.587 µM and 14.5 µM, respectively. Besides, the TGI is 20.1 µM in [1]; 18.1 µM in experiment [2]; 9.06 µM in experiment [3]; 10.3 µM in experiment [4]; 22.3 µM in [5]; over 36.6 µM in experiment [6]. The TGI came out at 10.2 µM in experiment [7], 17.6 µM in experiment [8], 1.57 µM in [9] and 29.8 µM in experiment [10].

On to `CN(CCN1C(=O)c2cccc3cccc(c23)C1=O)CCN1C(=O)c2cccc3cccc(c23)C1=O`, for which the TGI is 49.9 µM in experiment [1]; 19.2 µM in [2]; 28.8 µM in experiment [3]; 29 µM in experiment [4]; over 100 µM in [5]; over 100 µM in experiment [6]. The TGI in experiment [7] was 40.6 µM; in experiment [8] it was over 100 µM; in experiment [9], 27.7 µM.

For the molecule `CC(CCCCNC(=O)OC(C)(C)C)NC(=O)NC(C)CCCCNC(=O)OC(C)(C)C` (stereo unspecified), the TGI in experiment [1], in experiment [2], in experiment [3], in experiment [4], in experiment [5] and in experiment [6] was over 100 µM throughout. The TGI in [7], in experiment [8], in experiment [9] and in experiment [10] was over 100 µM throughout.

As for `CC(NC(=O)c1ccc(OP(=O)(OCc2ccc([N+](=O)[O-])o2)N(C)CCCCCl)cc1)c1ccc(OCC2CCCCC2)c(C(N)=O)c1` (stereo unspecified), the TGI in experiment [1] was 25.3 µM; in experiment [2], over 74.4 µM; in experiment [3] it was 6.39 µM; in [4] it was over 32.4 µM; in experiment [5], over 21.4 µM; in experiment [6] it was 7.39 µM. Moreover, the TGI in experiment [7] was 6.44 µM; in experiment [8], over 41.6 µM; in [9] it was 60.9 µM; in experiment [10], 63.2 µM.

Take `CCCC(=O)Nc1cc(/C=C/C(=O)N2CC(CCl)c3c2cc(OC(C)=O)c2[nH]cc(C)c32)n(C)c1` (stereo unspecified): the TGI in [1] was under 2.5e-05 µM; in [2], 0.000858 µM; in experiment [4], 0.000311 µM; in experiment [6], 4.23e-05 µM; in experiment [7], 4.26e-05 µM; in [8], 0.00193 µM. For the same molecule, in experiment [10], the TGI came out at 0.000667 µM.

`CN(CCCNC(=O)c1nn(-c2ccccc2)c2c1Cc1ccccc1-2)CCCNC(=O)c1nn(-c2ccccc2)c2c1Cc1ccccc1-2`: the TGI stood at 3.39 µM in experiment [2]; 3.29 µM in experiment [3]; 3.58 µM in experiment [5]; 3.26 µM in experiment [6]; 2.63 µM in [7]; 3.22 µM in experiment [9]. For the same molecule, the TGI in experiment [10] was 3.15 µM.

On to `CC(C)C(=O)CC(c1ccc(Br)cc1)N1N=C(C(C)C)CC1c1ccc(Br)cc1` (stereo unspecified), for which the TGI in experiment [2], in [3], in experiment [5], in [7] and in experiment [9] was over 100 µM in each case.

`CC1(C)CC(C(=O)OCCCCCCCCCCC[P+](c2ccccc2)(c2ccccc2)c2ccccc2)C(C)(C)N1O` (stereo unspecified): the GI50 is 0.319 µM in experiment [2]; 0.972 µM in [3]; 0.211 µM in experiment [4]; 0.253 µM in experiment [6]; 0.354 µM in [8]; 0.362 µM in experiment [9]. Besides, the GI50 in experiment [10] was 0.353 µM. Further, the TGI in experiment [2] stood at 1.72 µM; in experiment [3] it was 2.29 µM; in [4], 0.538 µM; in experiment [6] it was 1.24 µM; in [8] it was 1.84 µM; in experiment [9], 1.67 µM. In addition, the TGI in experiment [10] was 1.26 µM.

Turning to `Oc1ccc(Cl)cc1C1=Nn2c(COc3ccc4c(c3)CCCC4)nnc2SC1`, the TGI in [2] amounted to 30.9 µM; in experiment [3] it was 23.4 µM; in experiment [4] it was 29.7 µM; in experiment [5] it was 92.9 µM; in experiment [6] it was 25.4 µM; in experiment [7], 21.6 µM. Besides, the TGI in [8] came to 30 µM; in experiment [9], 20.1 µM; in experiment [10] it was 11.8 µM.

As for `CCOC(=O)/C=C/C1=C(Br)[C@@]2(C)CC[C@@H]3c4ccc(O)cc4CC[C@H]3[C@@H]2C1`, the TGI in experiment [3] was determined as 30.4 µM; in experiment [4] it was 29.2 µM; in [5], 30.5 µM; in experiment [6] it was 19.4 µM; in experiment [7], 14.2 µM; in experiment [8] it was 28.9 µM. The TGI worked out at 31.7 µM in experiment [9] and 32 µM in experiment [10].

In the case of `Clc1cccc(/C=c2\nc(-c3ccccc3)n3c2nc2ccccc23)c1`, the TGI was 81.2 µM in [1]; over 100 µM in [2]; over 100 µM in experiment [3]; over 100 µM in [4]; over 100 µM in experiment [5]; over 100 µM in [6]. Moreover, the TGI in [8], in [9] and in experiment [10] was over 100 µM throughout.

As to `Cc1c2ccccc2cc2cccc[n+]12`, the TGI is 83.7 µM in experiment [1]; over 100 µM in experiment [2]; 83.5 µM in [3]; over 100 µM in experiment [4]; over 100 µM in experiment [5]; over 100 µM in [6]. Moreover, the TGI is 37.4 µM in [7], 73 µM in experiment [8] and over 100 µM in experiment [9].

As for `CCCCSCCC(N)P(=O)(O)O` (stereo unspecified), the TGI in [1], in experiment [2], in experiment [3], in [4], in experiment [5] and in [7] was over 100 µM in each case. The TGI in [8] and in [9] was over 100 µM throughout.

Take `NC(N)=N/N=C/c1c(-c2cccs2)nc2n1CCS2`: the GI50 in experiment [2] is 46.5 µM; in [3], 70.4 µM; in experiment [4], 14 µM; in experiment [5] it was over 100 µM; in experiment [6], 13.5 µM; in [7], 38.2 µM. For the same molecule, the GI50 in experiment [8] was 18.8 µM; in [9] it was 18.3 µM; in [10] it was 5.65 µM. Further, the TGI in experiment [2] is over 100 µM; in experiment [3] it was over 100 µM; in [4], 30.6 µM; in experiment [5], over 100 µM; in [6] it was 26.4 µM; in [7] it was over 100 µM. The TGI in experiment [8] is 77.4 µM; in experiment [9], 46.5 µM; in experiment [10], over 100 µM.

As for `CN(C)c1ccc(/C=C2\C[C@H]3[C@@H]4CC=C5C[C@@H](O)CC[C@]5(C)[C@H]4CC[C@]3(C)[C@H]2O)cc1`, the TGI in experiment [1] is over 100 µM; in [2], 13.1 µM; in experiment [3], 36.9 µM; in [4], 44.8 µM; in experiment [5], 38.6 µM; in [6], 30.2 µM. The TGI in experiment [8] came to 50.8 µM; in [9] it was 33.7 µM; in experiment [10], 31.5 µM.

Take `C#C[C@]1(O)[C@@H](CO)O[C@@H](n2ccc(=O)[nH]c2=O)[C@@H]1O`: the TGI in experiment [2] is over 100 µM; in experiment [3] it was 0.183 µM; in [4], over 45.2 µM; in [5], over 100 µM; in [6] it was 3.56 µM; in experiment [7], 1.64 µM. Also, the TGI in experiment [8] is over 23.5 µM; in experiment [9], over 100 µM; in experiment [10], over 100 µM.

Consider `OC1CCSc2ccccc21` (stereo unspecified), for which the TGI in experiment [2], in [3], in experiment [5], in experiment [6] and in [7] was over 100 µM throughout.

`O=S(C(c1ccccc1)=P(c1ccccc1)(c1ccccc1)c1ccccc1)c1ccc(Cl)cc1` (stereo unspecified): the TGI was over 100 µM in [1]; over 100 µM in experiment [2]; over 100 µM in experiment [3]; over 100 µM in experiment [4]; 38.6 µM in [7]; 55.3 µM in experiment [8]. Besides, the TGI in experiment [9] is over 100 µM; in experiment [10] it was 37.1 µM.

For `CS(=O)(=O)Nc1cccc(-c2ccc3ncnc(Nc4cncc(Cl)c4)c3c2)c1`, the GI50 in experiment [1] is 2.77 µM; in [2] it was 3.22 µM; in [5], 2.5 µM; in experiment [6], 1.75 µM; in experiment [7], 1.75 µM; in [8] it was 1.35 µM. Besides, the GI50 in experiment [9] is 0.748 µM. Besides, the TGI in experiment [1] was over 100 µM; in experiment [2] it was over 100 µM; in experiment [5] it was over 100 µM; in [6], 3.86 µM; in experiment [7], 4.93 µM; in experiment [8] it was 6.41 µM. Moreover, in [9], the TGI was determined as 5.44 µM.

Turning to `Nc1csc(-c2scc3c2OCCO3)c1N`, the TGI in [2] was 40.1 µM; in experiment [3], 33.4 µM; in experiment [4], 38.3 µM; in [5], over 100 µM; in experiment [6], 45.1 µM; in experiment [7] it was 33.8 µM. Further, the TGI in experiment [8] was over 100 µM; in [9], 87.3 µM; in [10] it was 36.6 µM.
